Results on three compounds are retold here after patent publication US5504116A (Research Foundation of State University of New York, priority 1994, dated 1996).

“Also recorded” adds a separate entry of the source.

The target of data set [1] is T1, voltage-gated calcium channel (ICa) of uterine myocytes (Rattus norvegicus, UniProt P22002).
T1 construct: Individual myocytes were freshly isolated from 14 to 21-day pregnant uteri; endogenous in cells; host or cells: freshly dissociated longitudinal myometrial myocytes of 14 to 21-day pregnant Sprague-Dawley rats
T1 sequence (P22002 whole entry): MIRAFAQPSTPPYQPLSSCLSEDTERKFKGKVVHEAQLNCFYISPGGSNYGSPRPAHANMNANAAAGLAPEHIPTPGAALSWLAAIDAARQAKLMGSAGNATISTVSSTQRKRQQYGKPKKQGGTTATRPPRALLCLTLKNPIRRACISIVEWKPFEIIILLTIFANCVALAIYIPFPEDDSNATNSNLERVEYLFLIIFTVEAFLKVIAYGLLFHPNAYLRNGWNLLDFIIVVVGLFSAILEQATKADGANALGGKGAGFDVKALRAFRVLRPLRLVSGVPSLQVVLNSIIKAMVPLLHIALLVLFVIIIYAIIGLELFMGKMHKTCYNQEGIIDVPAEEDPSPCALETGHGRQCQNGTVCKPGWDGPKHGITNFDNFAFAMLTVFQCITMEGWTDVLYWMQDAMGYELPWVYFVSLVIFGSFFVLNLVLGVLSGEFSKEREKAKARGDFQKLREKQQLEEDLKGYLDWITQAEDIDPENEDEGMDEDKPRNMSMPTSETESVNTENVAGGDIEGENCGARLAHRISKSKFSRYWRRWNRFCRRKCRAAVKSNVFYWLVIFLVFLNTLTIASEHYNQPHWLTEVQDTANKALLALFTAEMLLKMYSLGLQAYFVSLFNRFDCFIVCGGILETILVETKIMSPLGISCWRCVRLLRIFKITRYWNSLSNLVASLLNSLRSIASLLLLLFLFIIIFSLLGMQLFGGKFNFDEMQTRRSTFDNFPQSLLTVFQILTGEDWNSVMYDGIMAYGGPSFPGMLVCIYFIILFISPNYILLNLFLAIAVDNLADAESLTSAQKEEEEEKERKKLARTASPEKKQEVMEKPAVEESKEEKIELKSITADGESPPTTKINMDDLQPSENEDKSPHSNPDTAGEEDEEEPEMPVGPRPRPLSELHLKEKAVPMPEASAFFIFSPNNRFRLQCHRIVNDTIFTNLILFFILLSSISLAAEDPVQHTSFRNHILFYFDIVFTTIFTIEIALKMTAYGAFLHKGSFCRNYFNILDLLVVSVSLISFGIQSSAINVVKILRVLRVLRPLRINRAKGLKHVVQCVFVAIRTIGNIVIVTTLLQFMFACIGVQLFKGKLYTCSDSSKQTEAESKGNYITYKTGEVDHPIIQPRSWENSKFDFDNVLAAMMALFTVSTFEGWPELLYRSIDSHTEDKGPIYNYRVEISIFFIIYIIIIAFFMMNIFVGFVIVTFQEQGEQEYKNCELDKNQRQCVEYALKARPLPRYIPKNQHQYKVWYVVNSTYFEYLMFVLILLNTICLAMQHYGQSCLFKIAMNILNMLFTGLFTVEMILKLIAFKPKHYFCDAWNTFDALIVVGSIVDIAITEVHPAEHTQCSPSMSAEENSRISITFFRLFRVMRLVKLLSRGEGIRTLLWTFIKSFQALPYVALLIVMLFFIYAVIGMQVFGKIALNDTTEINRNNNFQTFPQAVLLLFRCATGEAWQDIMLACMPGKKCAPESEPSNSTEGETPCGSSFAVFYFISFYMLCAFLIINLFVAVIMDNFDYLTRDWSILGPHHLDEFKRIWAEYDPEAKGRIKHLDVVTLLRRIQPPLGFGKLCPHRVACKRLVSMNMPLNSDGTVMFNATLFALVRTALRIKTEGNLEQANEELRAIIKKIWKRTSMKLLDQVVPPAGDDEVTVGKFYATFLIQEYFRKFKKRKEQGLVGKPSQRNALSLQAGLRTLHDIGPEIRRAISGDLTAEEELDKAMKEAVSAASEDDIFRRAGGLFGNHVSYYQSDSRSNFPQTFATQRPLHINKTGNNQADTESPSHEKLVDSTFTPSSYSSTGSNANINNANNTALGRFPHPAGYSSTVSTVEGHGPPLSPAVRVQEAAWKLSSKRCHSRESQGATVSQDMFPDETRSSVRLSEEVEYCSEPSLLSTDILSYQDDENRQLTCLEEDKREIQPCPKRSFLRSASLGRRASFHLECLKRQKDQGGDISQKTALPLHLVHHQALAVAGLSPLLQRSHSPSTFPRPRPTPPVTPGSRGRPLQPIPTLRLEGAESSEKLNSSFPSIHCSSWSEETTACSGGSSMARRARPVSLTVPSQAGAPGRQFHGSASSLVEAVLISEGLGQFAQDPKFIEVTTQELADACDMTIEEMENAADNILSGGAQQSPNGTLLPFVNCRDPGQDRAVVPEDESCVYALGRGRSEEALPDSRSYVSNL
T1 sequence (P54290 25-944 partner limits assumed): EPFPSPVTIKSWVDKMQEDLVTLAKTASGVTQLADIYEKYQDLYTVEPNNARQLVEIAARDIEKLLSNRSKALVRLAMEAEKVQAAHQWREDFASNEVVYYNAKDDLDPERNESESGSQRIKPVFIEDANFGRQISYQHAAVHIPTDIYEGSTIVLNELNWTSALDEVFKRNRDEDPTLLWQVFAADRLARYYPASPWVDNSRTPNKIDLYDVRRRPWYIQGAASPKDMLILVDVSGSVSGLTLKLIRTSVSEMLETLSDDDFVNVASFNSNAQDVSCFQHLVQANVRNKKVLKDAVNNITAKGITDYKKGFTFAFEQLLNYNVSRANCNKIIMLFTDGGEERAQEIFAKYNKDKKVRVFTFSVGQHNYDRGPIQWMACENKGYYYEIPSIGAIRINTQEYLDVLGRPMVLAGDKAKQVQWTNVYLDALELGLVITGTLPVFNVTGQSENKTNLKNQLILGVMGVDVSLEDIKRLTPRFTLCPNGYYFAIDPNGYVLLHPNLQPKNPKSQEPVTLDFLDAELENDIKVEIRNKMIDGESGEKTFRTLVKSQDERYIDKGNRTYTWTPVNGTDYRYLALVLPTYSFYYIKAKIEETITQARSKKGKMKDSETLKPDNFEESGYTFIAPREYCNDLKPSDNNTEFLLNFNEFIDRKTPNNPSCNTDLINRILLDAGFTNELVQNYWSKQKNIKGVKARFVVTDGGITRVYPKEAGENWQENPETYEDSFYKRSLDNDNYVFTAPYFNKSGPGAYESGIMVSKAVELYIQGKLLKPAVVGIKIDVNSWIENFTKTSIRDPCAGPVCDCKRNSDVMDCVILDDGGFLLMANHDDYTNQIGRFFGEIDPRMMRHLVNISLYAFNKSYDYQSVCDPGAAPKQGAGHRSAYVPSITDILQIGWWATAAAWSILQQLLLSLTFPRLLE
T1 sequence (P54290 945-1091 partner limits assumed): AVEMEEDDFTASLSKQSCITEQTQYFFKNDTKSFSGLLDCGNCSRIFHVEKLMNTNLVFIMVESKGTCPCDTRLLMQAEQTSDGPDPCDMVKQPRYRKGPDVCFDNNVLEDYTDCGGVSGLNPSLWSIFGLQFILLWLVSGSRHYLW
The note with it: 2 μM nisoldipine; cited from earlier work.

In a further data set the test system is preterm labor. The note with it: cited from earlier work.
Another data set concerns pregnant rats. The experiment in a line: effect on the duration of pregnancy in rats (intramuscular injections). In kind it is in vivo, rat. The settings on record: for term (duration of gestation): control 22.33±0.16 days, p <0.01.
Another data set relates to fetuses and newborn rats. The note with it: rat, in vivo.
Data set [2] relates to K+ channels (outward potassium currents) of uterine myocytes. Briefly: whole-cell patch clamp, outward potassium currents of late-pregnant rat uterine myocytes. It counts as cell-based.
Data set [3] addresses T1, voltage-gated calcium channel (ICa) of uterine myocytes. Briefly: whole-cell patch clamp, inward calcium current (ICa) of freshly dissociated pregnant rat uterine myocytes. In kind it is cell-based. From the text: Holding potential, -80 mV; depolarized by 35 ms steps from -40 mV in 10 mV increments to 30 mV. […] Traces shown represent inward currents in response to applied voltage commands, outward K^+ currents having been blocked by the use of Cs^+ -filled electrode. […] (E) Current-voltage (I--V) relations of INa in panels (A--D). Symbols correspond to those under current traces. (F) I--V relations of ICa.
Hollow symbols for I'Ca /ICa in same myocytes used for I'Na /INa values. […] P=I'Na /INa.
All experiments in this study were performed under institutional guidelines for the care and use of laboratory animals (approval #92-055). Rats (Sprague-Dawley) were mated individually in the inventors' laboratory, and the duration of gestation was timed from the morning of the first discovery of cervical plugs. […] Individual myocytes were freshly isolated from 14 to 21-day pregnant uteri. Details of the methods of isolating the myocytes in a near-physiological condition, and associated patch-clamping can be found in other publications^7,15. Briefly, strips of isolated longitudinal myometrium were incubated in collagenase, and then subjected to mild mechanical disruption, until individual myocytes in desired amounts were obtained. For the work described herein, such single freshly dissociated myocytes were studied in the whole-cell configuration of patch-clamping^9.
The bath solution in which the individual myocytes were studied contained (in mM): NaCl, 135; KCl, 5.4; MgCl2, 1; CaCl2, 3; HEPES, 10; and glucose 5. […] The pipette solution contained (in mM): CsCl, 120; EGTA, 1; Na2 ATP, 2; HEPES, 10; K-pyruvate, 5; K-oxaloacetate, 5; and K-succinate, 5. All solutions were adjusted to pH 7.3; all experiments were done at room temperature of ca. 22° C. In the whole-cell mode of recording, rupture of the cell membrane allows access of the pipette solution to the cell interior. The reason for using CsCl rather than KCl is that the Cs^+ effectively blocks outward K^+ currents, and allows the inward currents to be isolated for study. […] The basic properties of the voltage-gated sodium and calcium channels are described in detail in Yoshino et al^7.
The inward currents have been isolated by using a pipette solution containing 120 mM Cs^+.
For orientation: In patch-clamp work, channel activity is measured electrically.

The conditions of data set [4]: dosages used in continuous epidural anesthesia for labor; cited from earlier work.

Excerpt for fetuses and newborn rats: To avoid possible post-term complications, it was sacrificed.

Regarding `COC(=O)C1=C(C)NC(C)=C(C(=O)OCC(C)C)C1c1ccccc1[N+](=O)[O-]` (stereo not shown) [nisoldipine], in data set [1], the “block of Ca2+ current” value is “blocked”.

Regarding `CC(NCCc1ccc(O)cc1)C(O)c1ccc(O)cc1` (stereo not shown) [ritodrine], in the data set with preterm labor, the “duration of effectiveness in preterm labor” value is “effective for only a few days”, the “effect on pregnancy outcome” value was “does not affect the pregnancy outcome” and the side-effects result is on record as “can produce cardiovascular side-effects in some recipients”.

Turning to `CCN(CC)CC(=O)Nc1c(C)cccc1C` [lidocaine], the day of delivery entry with pregnant rats (2 mg/kg i.m. twice daily, two rats, both) is recorded as “delivered on the 23rd day”. Also, the “duration of pregnancy, single rat” value in the data set on pregnant rats (6 mg/kg i.m. twice daily, one rat, sacrificed) is “continued into the 26th day”. Also, the “term (duration of gestation)” value turned out to be 23.63 ± 0.39 days in the data set on pregnant rats (2, 4 or 6 mg/kg i.m. twice daily from day-20, 8 rats) and 23.83 ± 0.40 days in the data set with pregnant rats (4 or 6 mg/kg i.m. twice daily from day-20, 6 rats). Besides, the “difference in duration of gestation versus control” value in the data set with pregnant rats (i.m. lidocaine, 22-day gestation) came out at 1.5 days. The “lengthening of the term / prolongation of gestation” value in the data set on pregnant rats (i.m. lidocaine, pregnant rats) came to 7%. In addition, the “motor activities of fetuses at birth or newborn several hours after birth” value with fetuses and newborn rats was “no discernable differences”. For the same compound, the “condition of fetuses at autopsy” value in the data set on fetuses and newborn rats (6 mg/kg) was “healthy and indistinguishable from those of control newborns, except for their larger sizes”. The “effects on myometrial K+ or Ca2+ channels at concentrations blocking sodium channels” value in data set [2] (K+ channels, uterine myocytes) is given as “no effects”; in data set [3] (Ca2+ channels, uterine myocytes), “no effects”. Further, the “effect on coexisting potassium channels, summary in words” value in data set [2] (summary of the examples) is “very little effect”. Also, the “effect on outward K+ current” value in data set [2] (up to 0.5 mM lidocaine, 5 min, late-pregnant uteri (FIG. 1)) is “insignificant effects; also recorded: rather minor”. The “ICa, effect in words” value in data set [3] (0.02 mM lidocaine, 5 min (FIG. 3A)) is recorded as “no detectable difference”; in data set [3] (0.1 mM and 0.2 mM lidocaine, 5 min (FIG. 3B, C)) it was “slight reductions of the tail currents”. Further, the “Ca2+ currents, effect in words” value in data set [3] (0.5 mM lidocaine (FIG. 2D)) is “reduced slightly”. Moreover, the “ICa and tail-current, effect in words” value in data set [3] (1 mM lidocaine, 3 min (FIG. 2B)) is recorded as “only slightly reduced”. Also, the remaining activity at 1000 µM in data set [3] (0.05 h, read-out: ICa relative to control (pre-lidocaine)) stood at 93%. Moreover, the remaining activity at 500 µM in data set [3] (0.05 h, read-out: tail ICa remaining relative to recovery state (C)) was determined as 78%. Further, the “effect on ICa, in words” value in data set [3] (concentrations of lidocaine up to 0.5 mM (FIG. 4)) is on record as “very little effect”. For the same compound, the “effect on coexisting voltage-gated calcium channels, summary in words” value in data set [3] (summary of the examples) was “very little effect”. Moreover, the “serious side-effects on either the mother or the fetus” value in data set [4] is listed as “absence of serious side-effects”.
